Columns and labels:
[1] = target: Cyclin-dependent kinase 2 (Homo sapiens, UniProt P24941); assay: Selectivity interaction (Kinase panel (Invitrogen, enzymatic assay)) EUB0000623aCl CDK2
[2] = target: Epidermal growth factor receptor (Homo sapiens, UniProt P00533); assay: Selectivity interaction (Kinase panel (Invitrogen, enzymatic assay)) EUB0000623aCl EGFR
Ephrin type-A receptor 3 = Ephrin type-A receptor 3 (Homo sapiens, UniProt P29320); assay: Selectivity interaction (Kinase panel (Invitrogen, enzymatic assay)) EUB0000623aCl EPHA3
[3] = target: Receptor tyrosine-protein kinase erbB-4 (Homo sapiens, UniProt Q15303); assay: Selectivity interaction (Kinase panel (Invitrogen, enzymatic assay)) EUB0000623aCl ERBB4
Chain of Receptor tyrosine-protein kinase erbB-4 (Q15303 whole entry): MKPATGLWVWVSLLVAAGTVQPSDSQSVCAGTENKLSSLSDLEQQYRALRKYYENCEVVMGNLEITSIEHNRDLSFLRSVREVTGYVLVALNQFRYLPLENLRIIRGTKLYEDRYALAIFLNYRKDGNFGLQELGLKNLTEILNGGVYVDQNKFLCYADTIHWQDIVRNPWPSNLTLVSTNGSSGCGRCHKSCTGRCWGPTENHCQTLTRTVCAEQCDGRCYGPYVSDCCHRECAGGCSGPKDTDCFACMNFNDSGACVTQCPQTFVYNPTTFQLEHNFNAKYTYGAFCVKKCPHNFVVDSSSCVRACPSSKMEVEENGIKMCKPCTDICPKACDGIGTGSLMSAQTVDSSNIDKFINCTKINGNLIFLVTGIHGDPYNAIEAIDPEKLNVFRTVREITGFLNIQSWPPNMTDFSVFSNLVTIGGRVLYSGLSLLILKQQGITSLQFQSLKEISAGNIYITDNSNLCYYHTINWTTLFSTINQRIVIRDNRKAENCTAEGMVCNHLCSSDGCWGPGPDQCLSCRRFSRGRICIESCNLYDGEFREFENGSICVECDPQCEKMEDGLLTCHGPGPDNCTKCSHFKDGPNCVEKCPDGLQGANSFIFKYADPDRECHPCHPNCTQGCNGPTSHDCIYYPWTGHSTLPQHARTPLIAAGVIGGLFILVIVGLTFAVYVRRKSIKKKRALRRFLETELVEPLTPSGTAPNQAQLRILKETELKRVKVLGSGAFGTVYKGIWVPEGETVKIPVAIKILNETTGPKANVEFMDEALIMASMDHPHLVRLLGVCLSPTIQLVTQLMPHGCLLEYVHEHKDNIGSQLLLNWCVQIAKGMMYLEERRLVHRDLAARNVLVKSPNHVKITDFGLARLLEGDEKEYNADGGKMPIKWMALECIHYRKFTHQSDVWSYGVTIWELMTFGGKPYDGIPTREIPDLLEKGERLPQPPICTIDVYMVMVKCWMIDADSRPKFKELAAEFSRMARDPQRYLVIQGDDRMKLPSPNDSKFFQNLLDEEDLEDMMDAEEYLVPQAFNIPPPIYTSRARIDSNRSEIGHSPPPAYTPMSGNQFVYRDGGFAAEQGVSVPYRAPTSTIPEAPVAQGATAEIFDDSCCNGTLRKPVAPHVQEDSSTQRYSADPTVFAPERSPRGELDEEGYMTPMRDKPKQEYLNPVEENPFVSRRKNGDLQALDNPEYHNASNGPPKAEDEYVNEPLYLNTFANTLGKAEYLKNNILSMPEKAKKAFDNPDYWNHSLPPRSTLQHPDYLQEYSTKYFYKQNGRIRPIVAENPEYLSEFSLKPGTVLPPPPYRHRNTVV

[4] = target: Glycogen synthase kinase-3 beta (Homo sapiens, UniProt P49841); assay: Selectivity interaction (Kinase panel (Invitrogen, enzymatic assay)) EUB0000623aCl GSK3B
[5] = target: Inhibitor of nuclear factor kappa-B kinase subunit beta (Homo sapiens, UniProt O14920); assay: Selectivity interaction (Kinase panel (Invitrogen, enzymatic assay)) EUB0000623aCl IKBKB
[6] = target: Mitogen-activated protein kinase kinase kinase 1 (Homo sapiens, UniProt Q13233); assay: Selectivity interaction (Kinase panel (Invitrogen, enzymatic assay)) EUB0000623aCl MAP3K1
Chain of Mitogen-activated protein kinase kinase kinase 1 (Q13233 whole entry): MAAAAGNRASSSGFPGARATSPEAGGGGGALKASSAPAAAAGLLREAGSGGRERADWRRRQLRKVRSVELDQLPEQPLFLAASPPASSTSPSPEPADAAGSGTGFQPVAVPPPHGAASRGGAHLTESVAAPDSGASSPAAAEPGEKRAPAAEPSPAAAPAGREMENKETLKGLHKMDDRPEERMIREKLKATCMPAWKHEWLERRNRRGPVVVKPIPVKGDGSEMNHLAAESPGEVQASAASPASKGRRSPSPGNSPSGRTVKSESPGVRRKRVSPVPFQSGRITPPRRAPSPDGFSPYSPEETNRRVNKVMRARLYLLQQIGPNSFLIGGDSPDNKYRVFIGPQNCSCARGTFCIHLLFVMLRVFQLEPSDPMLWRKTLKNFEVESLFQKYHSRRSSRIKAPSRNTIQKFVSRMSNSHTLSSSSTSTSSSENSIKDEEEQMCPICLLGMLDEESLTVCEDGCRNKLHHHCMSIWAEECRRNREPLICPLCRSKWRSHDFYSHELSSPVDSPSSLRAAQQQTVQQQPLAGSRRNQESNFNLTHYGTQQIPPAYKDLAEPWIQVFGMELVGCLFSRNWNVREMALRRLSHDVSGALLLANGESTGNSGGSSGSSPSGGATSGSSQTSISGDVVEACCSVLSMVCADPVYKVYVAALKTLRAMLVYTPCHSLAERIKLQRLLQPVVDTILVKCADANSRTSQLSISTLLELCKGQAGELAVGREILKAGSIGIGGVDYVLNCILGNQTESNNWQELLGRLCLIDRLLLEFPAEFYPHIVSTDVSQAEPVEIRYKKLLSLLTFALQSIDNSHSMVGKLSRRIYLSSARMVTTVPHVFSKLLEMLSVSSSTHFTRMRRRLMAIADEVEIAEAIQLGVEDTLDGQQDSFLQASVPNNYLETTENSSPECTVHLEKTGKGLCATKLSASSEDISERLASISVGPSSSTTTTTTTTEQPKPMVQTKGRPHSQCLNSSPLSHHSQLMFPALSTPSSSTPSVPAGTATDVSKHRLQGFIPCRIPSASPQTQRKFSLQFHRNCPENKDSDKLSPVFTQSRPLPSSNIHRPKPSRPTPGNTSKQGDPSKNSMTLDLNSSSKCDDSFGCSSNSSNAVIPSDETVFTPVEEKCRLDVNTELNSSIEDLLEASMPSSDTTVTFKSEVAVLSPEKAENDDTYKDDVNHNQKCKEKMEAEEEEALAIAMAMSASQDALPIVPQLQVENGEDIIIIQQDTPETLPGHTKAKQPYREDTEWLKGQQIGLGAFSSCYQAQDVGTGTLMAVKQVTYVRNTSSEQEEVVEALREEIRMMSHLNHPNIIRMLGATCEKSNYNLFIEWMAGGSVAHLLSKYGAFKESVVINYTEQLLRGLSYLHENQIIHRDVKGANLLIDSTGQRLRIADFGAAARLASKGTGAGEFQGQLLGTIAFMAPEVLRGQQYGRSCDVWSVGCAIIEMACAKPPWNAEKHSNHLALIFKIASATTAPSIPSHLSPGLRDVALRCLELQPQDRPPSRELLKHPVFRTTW

[7] = target: Mitogen-activated protein kinase kinase kinase 7 (Homo sapiens, UniProt O43318); assay: Selectivity interaction (Kinase panel (Invitrogen, enzymatic assay)) EUB0000623aCl MAP3K7
Chain of Mitogen-activated protein kinase kinase kinase 7 (O43318 whole entry): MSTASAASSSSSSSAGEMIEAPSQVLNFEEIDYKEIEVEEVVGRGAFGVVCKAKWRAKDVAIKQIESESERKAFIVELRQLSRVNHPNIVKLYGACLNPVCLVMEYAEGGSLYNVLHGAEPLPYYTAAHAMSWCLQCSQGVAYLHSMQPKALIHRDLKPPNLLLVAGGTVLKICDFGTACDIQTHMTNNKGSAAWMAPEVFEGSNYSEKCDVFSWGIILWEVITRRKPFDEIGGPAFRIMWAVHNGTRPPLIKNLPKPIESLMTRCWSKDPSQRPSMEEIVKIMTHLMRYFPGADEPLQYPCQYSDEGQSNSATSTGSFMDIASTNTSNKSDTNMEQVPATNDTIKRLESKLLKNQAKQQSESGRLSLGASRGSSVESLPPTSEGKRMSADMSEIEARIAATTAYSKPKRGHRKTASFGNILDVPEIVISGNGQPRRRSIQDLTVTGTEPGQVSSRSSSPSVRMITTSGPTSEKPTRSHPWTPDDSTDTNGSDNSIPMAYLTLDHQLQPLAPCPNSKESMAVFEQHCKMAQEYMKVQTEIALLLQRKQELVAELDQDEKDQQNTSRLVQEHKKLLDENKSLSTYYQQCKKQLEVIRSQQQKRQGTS

[8] = target: T1, Mitogen-activated protein kinase 14 (Homo sapiens, UniProt Q16539); assay: (§1) Selectivity interaction (Kinase panel (Invitrogen, enzymatic assay)) EUB0000623aCl MAPK14
T1 sequence (Q16539 whole entry): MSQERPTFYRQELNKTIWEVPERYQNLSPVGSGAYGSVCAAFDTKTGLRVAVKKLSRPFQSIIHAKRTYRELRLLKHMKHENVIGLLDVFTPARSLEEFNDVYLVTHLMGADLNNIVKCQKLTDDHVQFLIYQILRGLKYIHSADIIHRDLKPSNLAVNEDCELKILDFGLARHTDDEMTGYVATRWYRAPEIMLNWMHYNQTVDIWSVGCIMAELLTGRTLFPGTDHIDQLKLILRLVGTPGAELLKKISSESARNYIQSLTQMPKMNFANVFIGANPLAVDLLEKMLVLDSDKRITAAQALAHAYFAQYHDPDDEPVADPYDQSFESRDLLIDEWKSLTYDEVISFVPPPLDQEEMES

[9] = target: T1, Mitogen-activated protein kinase 14; assay: as §1; remark: listed apart in the source
[10] = target: Mitogen-activated protein kinase 3 (Homo sapiens, UniProt P27361); assay: Selectivity interaction (Kinase panel (Invitrogen, enzymatic assay)) EUB0000623aCl MAPK3
[11] = target: Mitogen-activated protein kinase 8 (Homo sapiens, UniProt P45983); assay: Selectivity interaction (Kinase panel (Invitrogen, enzymatic assay)) EUB0000623aCl MAPK8
[12] = target: Protein kinase C theta type (Homo sapiens, UniProt Q04759); assay: Selectivity interaction (Kinase panel (Invitrogen, enzymatic assay)) EUB0000623aCl PRKCQ
[13] = target: Macrophage-stimulating protein receptor (Homo sapiens, UniProt Q04912); assay: Selectivity interaction (Kinase panel (Invitrogen, enzymatic assay)) EUB0000623aCl MST1R
[14] = target: Calcium/calmodulin-dependent protein kinase type II subunit alpha (Homo sapiens, UniProt Q9UQM7); assay: Selectivity interaction (Kinase panel (radiometric inhibition assay)) EUB0000651a CAMK2A
[15] = target: Leukocyte tyrosine kinase receptor (Homo sapiens, UniProt P29376); assay: Selectivity interaction (Kinase panel (radiometric inhibition assay)) EUB0000651a LTK
[16] = target: cAMP-dependent protein kinase catalytic subunit alpha (Homo sapiens, UniProt P17612); assay: Selectivity interaction (Kinase panel (radiometric inhibition assay)) EUB0000651a PRKACA
[17] = target: Protein kinase C alpha type (Homo sapiens, UniProt P17252); assay: Selectivity interaction (Kinase panel (radiometric inhibition assay)) EUB0000651a PRKCA
[18] = target: Tyrosine-protein kinase SYK (Homo sapiens, UniProt P43405); assay: Selectivity interaction (Kinase panel (radiometric inhibition assay)) EUB0000651a SYK

Chain of Epidermal growth factor receptor (P00533 whole entry): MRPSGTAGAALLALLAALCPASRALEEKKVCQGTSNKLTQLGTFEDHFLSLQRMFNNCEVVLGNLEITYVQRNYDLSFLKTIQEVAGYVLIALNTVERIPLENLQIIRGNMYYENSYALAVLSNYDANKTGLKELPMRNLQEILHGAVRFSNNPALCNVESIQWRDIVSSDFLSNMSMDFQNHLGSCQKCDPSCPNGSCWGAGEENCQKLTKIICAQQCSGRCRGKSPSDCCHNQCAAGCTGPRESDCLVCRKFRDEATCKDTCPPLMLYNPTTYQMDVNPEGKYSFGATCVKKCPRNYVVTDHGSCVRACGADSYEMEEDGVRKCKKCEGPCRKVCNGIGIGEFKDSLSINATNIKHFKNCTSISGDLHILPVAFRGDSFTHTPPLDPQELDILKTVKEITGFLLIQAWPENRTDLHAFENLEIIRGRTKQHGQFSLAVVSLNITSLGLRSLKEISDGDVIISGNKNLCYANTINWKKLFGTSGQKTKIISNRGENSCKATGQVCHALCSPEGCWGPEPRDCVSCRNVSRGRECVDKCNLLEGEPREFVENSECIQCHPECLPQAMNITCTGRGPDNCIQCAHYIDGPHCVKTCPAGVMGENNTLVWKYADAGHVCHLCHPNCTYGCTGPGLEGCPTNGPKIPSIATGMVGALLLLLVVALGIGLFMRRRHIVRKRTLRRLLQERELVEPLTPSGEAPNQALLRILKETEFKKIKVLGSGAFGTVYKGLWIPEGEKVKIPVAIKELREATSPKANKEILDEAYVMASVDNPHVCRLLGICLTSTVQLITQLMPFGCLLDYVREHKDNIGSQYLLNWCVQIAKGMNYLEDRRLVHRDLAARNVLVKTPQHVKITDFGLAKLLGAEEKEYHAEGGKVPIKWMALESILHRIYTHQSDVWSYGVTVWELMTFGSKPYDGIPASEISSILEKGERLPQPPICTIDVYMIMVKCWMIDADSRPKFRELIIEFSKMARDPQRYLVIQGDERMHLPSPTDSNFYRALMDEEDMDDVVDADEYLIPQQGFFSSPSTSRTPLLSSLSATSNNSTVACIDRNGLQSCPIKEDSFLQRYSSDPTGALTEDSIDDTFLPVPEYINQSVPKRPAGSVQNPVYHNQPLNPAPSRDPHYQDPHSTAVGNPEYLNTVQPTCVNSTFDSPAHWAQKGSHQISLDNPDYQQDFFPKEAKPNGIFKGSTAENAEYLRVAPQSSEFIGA

Structure (SMILES)	IC50 [1] [µM]	IC50 [2] [µM]	IC50 (Ephrin type-A receptor 3) [µM]	IC50 [3] [µM]	IC50 [4] [µM]	IC50 [5] [µM]	IC50 [6] [µM]	IC50 [7] [µM]	IC50 [8] [µM]	IC50 [9] [µM]	IC50 [10] [µM]	IC50 [11] [µM]	IC50 [12] [µM]	IC50 [13] [µM]	IC50 [14] [µM]	IC50 [15] [µM]	IC50 [16] [µM]	IC50 [17] [µM]	IC50 [18] [µM]
CC(C)(C)c1ccc(C(=O)Nc2cn3cc(-n4ccnc4)ccc3n2)cc1	0.158	> 20	> 20	> 20	> 10	> 10	> 10	> 10	> 10	> 20	> 10	> 10	> 10	> 20	–	–	–	–	–
COc1cc(C)c(Sc2cnc(NC(=O)c3ccc(CNC(C)C(C)(C)C)cc3)s2)cc1C(=O)N1CCN(C(C)=O)CC1 (centres undefined)	–	–	–	–	–	–	–	–	–	–	–	–	–	–	33.5	2.4	> 50	24	> 50
